Key:
Assay in all cases: NCI-60 SRB screen
Assay type in all cases: cell-based
[1] = test system: A498
From the text: (§1) Supplementary Figure l egend
(§2) 10μ M of CTR-20 was used to examine the drug’s efficac y against the NC I-60 cancer cell li nes including: six leukemia cell lines, nine non- small cell lung cancer cell lines, seven color ect al cancer cell lines, six CNS cancer cell lines, nine melanoma cell lines, seven ovari an can cer cell lines, seven ren al can cer cell lines, two prostate cancer cell lines and six breast cancer cell lines. The scr eenin g was car r ied out b y the US National Cancer Institute (NC I) us i n g a sulforhodamine B (SRB) colorimetric assay. […]
(§3) out by the NC I using five different doses of CTR -20.

[2] = test system: DU-145
From the text: as §1, §2, §3

[3] = test system: HL-60(TB)
From the text: as §1, §2, §3

[4] = test system: HOP-92
From the text: as §1, §2, §3

[5] = test system: HT29
From the text: as §1, §2, §3

[6] = test system: MDA-MB-468
From the text: as §1, §2, §3

[7] = test system: NCI/ADR-RES
From the text: as §1, §2, §3

[8] = test system: OVCAR-8
From the text: as §1, §2, §3

[9] = test system: RXF 393
From the text: as §1, §2, §3

[10] = test system: SF-539
From the text: as §1, §2, §3

[11] = test system: SK-MEL-28
From the text: as §1, §2, §3

[12] = test system: SNB-19
From the text: as §1, §2, §3

[13] = Homo sapiens, read-out: LC50 (the source's name)

COc1ccc2[nH]c(=O)c(/C=C/C(=O)c3ccccc3OC)cc2c1 [CTR-20, (E)-6-Methoxy-3-(3-(2-methoxyphenyl)-3-oxoprop-1-enyl) quinolin-2(1H)-one]
Log10GI50 [1]: -6.18 Molar | Log10LC50 [1]: -4.63 Molar | Log10TGI [1]: -5.34 Molar | TGI [1]: 4.55E-6 Molar | Growth Percent ([1]; 1.00E-5 Molar): 21.71% | GI50 ([1]; Homo sapiens): 0.656 µM | CC50 [1, 13]: 23.6 µM | Percent Growth ([1]; Log10 Concentration -4.0): -100% | Percent Growth ([1]; Log10 Concentration -5.0): -20% | Percent Growth ([1]; Log10 Concentration -6.0): 39% | Percent Growth ([1]; Log10 Concentration -7.0): 99% | Percent Growth ([1]; Log10 Concentration -8.0): 97% | Log10GI50 [2]: -6.28 Molar | Log10LC50 [2]: -5.26 Molar | Log10TGI [2]: -5.71 Molar | TGI [2]: 1.96E-6 Molar | Growth Percent ([2]; 1.00E-5 Molar): 10.76% | GI50 ([2]; Homo sapiens): 0.529 µM | CC50 [2, 13]: 5.47 µM | Percent Growth ([2]; Log10 Concentration -4.0): -93% | Percent Growth ([2]; Log10 Concentration -5.0): -79% | Percent Growth ([2]; Log10 Concentration -6.0): 33% | Percent Growth ([2]; Log10 Concentration -7.0): 95% | Percent Growth ([2]; Log10 Concentration -8.0): 98% | Log10GI50 [3]: -6.69 Molar | Log10LC50 [3]: > -4.00 Molar | Log10TGI [3]: -6.05 Molar | TGI [3]: 8.83E-7 Molar | Growth Percent ([3]; 1.00E-5 Molar): -2.46% | GI50 ([3]; Homo sapiens): 0.206 µM | CC50 [3, 13]: > 100 µM | Percent Growth ([3]; Log10 Concentration -4.0): -37% | Percent Growth ([3]; Log10 Concentration -5.0): -12% | Percent Growth ([3]; Log10 Concentration -6.0): -4% | Percent Growth ([3]; Log10 Concentration -7.0): 75% | Percent Growth ([3]; Log10 Concentration -8.0): 97% | Log10GI50 [4]: -5.80 Molar | Log10LC50 [4]: -4.57 Molar | Log10TGI [4]: -5.21 Molar | TGI [4]: 6.17E-6 Molar | Growth Percent ([4]; 1.00E-5 Molar): -11.97% | GI50 ([4]; Homo sapiens): 1.57 µM | LC50 ([4]; Homo sapiens): 27 µM | Percent Growth ([4]; Log10 Concentration -4.0): -92% | Percent Growth ([4]; Log10 Concentration -5.0): -18% | Percent Growth ([4]; Log10 Concentration -6.0): 67% | Percent Growth ([4]; Log10 Concentration -7.0): 111% | Percent Growth ([4]; Log10 Concentration -8.0): 107% | Log10GI50 [5]: -6.53 Molar | Log10LC50 [5]: -4.63 Molar | Log10TGI [5]: -5.86 Molar | TGI [5]: 1.37E-6 Molar | Growth Percent ([5]; 1.00E-5 Molar): 7.17% | GI50 ([5]; Homo sapiens, HT-29): 0.293 µM | LC50 ([5]; Homo sapiens, HT-29): 23.7 µM | Percent Growth ([5]; Log10 Concentration -4.0): -73% | Percent Growth ([5]; Log10 Concentration -5.0): -36% | Percent Growth ([5]; Log10 Concentration -6.0): 6% | Percent Growth ([5]; Log10 Concentration -7.0): 89% | Percent Growth ([5]; Log10 Concentration -8.0): 98% | Log10GI50 [6]: -6.47 Molar | Log10LC50 [6]: -4.40 Molar | Log10TGI [6]: -5.78 Molar | TGI [6]: 1.65E-6 Molar | Growth Percent ([6]; 1.00E-5 Molar): 16.65% | GI50 ([6]; Homo sapiens): 0.336 µM | CC50 [6, 13]: 40.1 µM | Percent Growth ([6]; Log10 Concentration -4.0): -68% | Percent Growth ([6]; Log10 Concentration -5.0): -22% | Percent Growth ([6]; Log10 Concentration -6.0): 6% | Percent Growth ([6]; Log10 Concentration -7.0): 99% | Percent Growth ([6]; Log10 Concentration -8.0): 99% | Log10GI50 [7]: -6.56 Molar | Log10LC50 [7]: > -4.00 Molar | Log10TGI [7]: -4.70 Molar | TGI [7]: 2.00E-5 Molar | Growth Percent ([7]; 1.00E-5 Molar): 10.36% | GI50 ([7]; Homo sapiens): 0.273 µM | CC50 [7, 13]: > 100 µM | Percent Growth ([7]; Log10 Concentration -4.0): -8% | Percent Growth ([7]; Log10 Concentration -5.0): 3% | Percent Growth ([7]; Log10 Concentration -6.0): 14% | Percent Growth ([7]; Log10 Concentration -7.0): 78% | Percent Growth ([7]; Log10 Concentration -8.0): 97% | Log10GI50 [8]: -6.06 Molar | Log10LC50 [8]: -4.46 Molar | Log10TGI [8]: -4.94 Molar | TGI [8]: 1.16E-5 Molar | Growth Percent ([8]; 1.00E-5 Molar): 1.18% | GI50 ([8]; Homo sapiens): 0.874 µM | CC50 [8, 13]: 34.4 µM | Percent Growth ([8]; Log10 Concentration -4.0): -99% | Percent Growth ([8]; Log10 Concentration -5.0): 7% | Percent Growth ([8]; Log10 Concentration -6.0): 46% | Percent Growth ([8]; Log10 Concentration -7.0): 109% | Percent Growth ([8]; Log10 Concentration -8.0): 113% | Log10GI50 [9]: -5.99 Molar | Log10LC50 [9]: -5.19 Molar | Log10TGI [9]: -5.59 Molar | TGI [9]: 2.57E-6 Molar | Growth Percent ([9]; 1.00E-5 Molar): -7.90% | GI50 ([9]; Homo sapiens): 1.02 µM | CC50 [9, 13]: 6.48 µM | Percent Growth ([9]; Log10 Concentration -4.0): -98% | Percent Growth ([9]; Log10 Concentration -5.0): -74% | Percent Growth ([9]; Log10 Concentration -6.0): 51% | Percent Growth ([9]; Log10 Concentration -7.0): 99% | Percent Growth ([9]; Log10 Concentration -8.0): 99% | Log10GI50 [10]: -6.35 Molar | Log10LC50 [10]: -4.87 Molar | Log10TGI [10]: -5.60 Molar | TGI [10]: 2.49E-6 Molar | Growth Percent ([10]; 1.00E-5 Molar): -10.00% | GI50 ([10]; Homo sapiens): 0.443 µM | LC50 (concentration killing 50% of starting cells) ([10]; Homo sapiens): 13.4 µM | Percent Growth ([10]; Log10 Concentration -4.0): -99% | Percent Growth ([10]; Log10 Concentration -5.0): -43% | Percent Growth ([10]; Log10 Concentration -6.0): 28% | Percent Growth ([10]; Log10 Concentration -7.0): 90% | Percent Growth ([10]; Log10 Concentration -8.0): 90% | Log10GI50 [11]: -5.82 Molar | Log10LC50 [11]: -4.54 Molar | Log10TGI [11]: -5.14 Molar | TGI [11]: 7.32E-6 Molar | Growth Percent ([11]; 1.00E-5 Molar): 50.45% | GI50 ([11]; Homo sapiens): 1.52 µM | CC50 [11, 13]: 28.5 µM | Percent Growth ([11]; Log10 Concentration -4.0): -98% | Percent Growth ([11]; Log10 Concentration -5.0): -10% | Percent Growth ([11]; Log10 Concentration -6.0): 63% | Percent Growth ([11]; Log10 Concentration -7.0): 95% | Percent Growth ([11]; Log10 Concentration -8.0): 96% | Log10GI50 [12]: -6.44 Molar | Log10LC50 [12]: -5.05 Molar | Log10TGI [12]: -5.75 Molar | TGI [12]: 1.79E-6 Molar | Growth Percent ([12]; 1.00E-5 Molar): 17.04% | GI50 ([12]; Homo sapiens): 0.362 µM | CC50 [12, 13]: 8.88 µM | Percent Growth ([12]; Log10 Concentration -4.0): -89% | Percent Growth ([12]; Log10 Concentration -5.0): -54% | Percent Growth ([12]; Log10 Concentration -6.0): 18% | Percent Growth ([12]; Log10 Concentration -7.0): 90% | Percent Growth ([12]; Log10 Concentration -8.0): 98%
